In patent publication US11419918B2, “Treatment of biliary cirrhosis based on oxyntomodulin analogue GLP-1R/GCGR dual-target agonist peptide” (Shenzhen Turier Biotech Co., Ltd., priority 2017, dated 2022):
Numbered stars: 1 amine (or outer) side, 2 acyl side, 3 side chain; on linkers, the order of the positions; unused ones are H or OH. Square brackets hold non-standard residues; d marks the D form. Primed or numbered codes have the meaning given here. Side chains are listed from the residue outwards. Ends that are not written are not given here. * marks the point of attachment. C18 diacid = O=C(O)CCCCCCCCCCCCCCCCC(=O)*; C16 diacid = O=C(O)CCCCCCCCCCCCCCC(=O)*; γGlu = O=C(O)[C@H](CCC(=O)[*:2])N[*:1]; Stearoyl = CCCCCCCCCCCCCCCCCC(=O)*; Palmitoyl = CCCCCCCCCCCCCCCC(=O)*; Nle = CCCC[C@H](N)C(=O)O; PEG2′ = not defined here; Aib = CC(C)(N)C(=O)O

Tests used:
[1] = test system: human hepatic stellate cells (LX-2); assay: In vitro inhibition of hepatic fibrosis: expression of activation marker α-SMA in LX-2 cells (Western Blot, β-actin internal reference); type: cell-based; settings: 10.0 μM, 48 hours, negative control (PBS) = 100%
Protocol: Hepatic stellate cell strain LX-2 was selected to study and observe the effect of different doses of test substances on the expression of LX-2 cell activation marker α-SMA. Hepatic stellate cell LX-2 was laid on 35 mm cell culture plate, cultured with DMEM (high glucose)+10% FBS+1% double-antibody culture medium (Thermo Fisher), placed overnight when the cells grew to 70% convergence at 37° C. and under the condition of 5% CO2, and treated with the above GLP-1R/GCGR dual target agonist polypeptides 1-48 (dissolved in PBS) for 48 hours the next day morning to extract cell protein, carry out Western Blot, and take β-actin as internal reference and analyze the expression quantities of α-SMA and β-actin by a gray level of Image J 1.50i. PBS with the same volume as that in experimental group was added in negative control. […] The integrating gray level of α-SMA/β-actin in the negative control group was 100% to analyze the in vitro inhibition activity of hepatic fibrosis of tested polypeptide.

[2] = test system: BDL-induced cholestasis hepatic fibrosis in rats; assay: Bile duct ligation (BDL)-induced hepatic fibrosis in rats (biliary cirrhosis rat model); type: in vivo, SD rats; settings: 50 μg/kg subcutaneous every two days, 14 days
Protocol: 1. Experimental Drugs: polypeptide compounds 3, 6, 7, 10, 17, 20, 37, 38, 39, 40, 44, 46, Obeticholic Acid (Abbr. OCA, CAS:459789-99-2, purchased from Zhejiang Warrant Pharmaceutical Co., Ltd.) and Liraglutide. Saving condition was −20° C.
128 male SD rats with body weight of 200-230 g were randomly divided into sixteen groups, which were respectively:
SD rats with body weight of 200-230 g at SPF level were provided by Lanzhou University Laboratory Animal Center. After rats were quarantined in the room (SPF environment) for one week, model rat and rat in sham-operated group were subject to intraperitoneal injection and anesthesia with 0.6% pentobarbital sodium solution, and operation was performed on a super clean bench after anesthesia. Bilateral ligation was conducted on model rat after the common bile duct was separated, and ligation was not conducted on rat in sham-operated group, but only the common bile duct was separated. Administration was started from the next day of the operation.
Administration was started from the first day of the operation, and subcutaneous injection of compounds 3, 6, 7, 10, 17, 20, 37, 38, 39, 40, 44, 46 and Liraglutide with 50 μg/kg was performed every two days; intraperitoneal injection for the Obeticholic Acid administration group with 7.5 mg/kg was performed every day; as for the normal saline group, injection was performed every day. During the administration, changes in vital signs of rats were observed every day.
After the end of two weeks of administration cycle (14 days), the rats were killed to collect materials for subsequent biological determination experiments. The livers were taken out for HE dye, Sirius Red dye and IHC dye. Image-pro plus and Graph pad software were used for statistics.

Substance: His-(D-Ser)-Gln-Gly-Thr-Phe-Thr-Ser-Asp-Lys(PEG2-PEG2-CO(CH2)14CH3)-Ser-Lys-Tyr-Leu-Asp-Aib-Arg-Arg-Ala-Gln-Asp-Phe-Val-Gln-Trp-Leu-Leu-Asn-Thr-Gly-Gly-Pro-Ser-Ser-Gly-Ala-Pro-Pro-Pro-Ser-NH2 (H[dS]QGTFTSDK([PEG2′-PEG2′-Palmitoyl])SKYLD[Aib]RRAQDFVQWLLNTGGPSSGAPPPS-NH2) [Compound 44]
- Relative expression of α-SMA (α-SMA/β-actin, %) [1]: 39.19%
- ALT in the serum (FIG. 6) [2]: significantly inhibit
- BDL-induced hepatic fibrosis and inflammation (HE, Sirius Red, IHC sections) [2]: significantly reduce
- collagenous fiber deposition in liver (Sirius Red dyed sections, FIGS. 2, 4) [2]: significantly inhibit
- content of hydroxyproline of the liver (FIG. 7) [2]: significantly inhibit
- α-SMA in liver (IHC dyed sections, FIGS. 3, 5) [2]: significantly inhibit

Substance: His-(D-Ser)-Gln-Gly-Thr-Phe-Thr-Ser-Asp-Lys(PEG2-PEG2-CO(CH2)16CO2H-Ser-Lys-Tyr-Leu-Asp-Aib-Arg-Arg-Ala-Gln-Asp-Phe-Val-Gln-Trp-Leu-Nle-Asn-Thr-Gly-Gly-Pro-Ser-Ser-Gly-Ala-Pro-Pro-Pro-Ser-NH2 (H[dS]QGTFTSDK([PEG2′-PEG2′-C18 diacid])SKYLD[Aib]RRAQDFVQWL[Nle]NTGGPSSGAPPPS-NH2) [Compound 46]
- Relative expression of α-SMA (α-SMA/β-actin, %) [1]: 36.84%
- ALT in the serum (FIG. 6) [2]: significantly inhibit
- BDL-induced hepatic fibrosis and inflammation (HE, Sirius Red, IHC sections) [2]: significantly reduce
- collagenous fiber deposition in liver (Sirius Red dyed sections, FIGS. 2, 4) [2]: significantly inhibit
- content of hydroxyproline of the liver (FIG. 7) [2]: significantly inhibit
- α-SMA in liver (IHC dyed sections, FIGS. 3, 5) [2]: significantly inhibit

Substance: His-(D-Ser)-Gln-Gly-Thr-Phe-Thr-Ser-Asp-Tyr-Ser-Lys(PEG2-PEG2-CO(CH2)16CH3)-Lys-Leu-Asp-Aib-Arg-Arg-Ala-Gln-Asp-Phe-Val-Gln-Trp-Leu-Met-Asn-Thr-Gly-Gly-Pro-Ser-Ser-Gly-Ala-Pro-Pro-Pro-Ser-NH2 (H[dS]QGTFTSDYSK([PEG2′-PEG2′-Stearoyl])KLD[Aib]RRAQDFVQWLMNTGGPSSGAPPPS-NH2) [Compound 3]
- Relative expression of α-SMA (α-SMA/β-actin, %) [1]: 32.25%
- ALT in the serum (FIG. 6) [2]: significantly inhibit
- BDL-induced hepatic fibrosis and inflammation (HE, Sirius Red, IHC sections) [2]: significantly reduce
- collagenous fiber deposition in liver (Sirius Red dyed sections, FIGS. 2, 4) [2]: significantly inhibit
- content of hydroxyproline of the liver (FIG. 7) [2]: significantly inhibit
- α-SMA in liver (IHC dyed sections, FIGS. 3, 5) [2]: significantly inhibit

Substance: His-(D-Ser)-Gln-Gly-Thr-Phe-Thr-Ser-Asp-Tyr-Ser-Lys(PEG2-PEG2-γGlu-CO(CH2)16CO2H)-Lys-Leu-Asp-Aib-Arg-Arg-Ala-Gln-Asp-Phe-Val-Gln-Trp-Leu-Met-Asn-Thr-Gly-Gly-Pro-Ser-Ser-Gly-Ala-Pro-Pro-Pro-Ser-NH2 (H[dS]QGTFTSDYSK([PEG2′-PEG2′-γGlu-C18 diacid])KLD[Aib]RRAQDFVQWLMNTGGPSSGAPPPS-NH2) [Compound 20]
- Relative expression of α-SMA (α-SMA/β-actin, %) [1]: 28.39%
- ALT in the serum (FIG. 6) [2]: significantly inhibit
- BDL-induced hepatic fibrosis and inflammation (HE, Sirius Red, IHC sections) [2]: significantly reduce
- collagenous fiber deposition in liver (Sirius Red dyed sections, FIGS. 2, 4) [2]: significantly inhibit
- content of hydroxyproline of the liver (FIG. 7) [2]: significantly inhibit
- α-SMA in liver (IHC dyed sections, FIGS. 3, 5) [2]: significantly inhibit

Substance: His-(D-Ser)-Gln-Gly-Thr-Phe-Thr-Ser-Asp-Tyr-Ser-Lys-Tyr-Leu-Asp-Aib-Lys(PEG2-PEG2-CO(CH2)16CO2H)-Arg-Ala-Gln-Asp-Phe-Val-Gln-Trp-Leu-Met-Asn-Thr-Gly-Gly-Pro-Ser-Ser-Gly-Ala-Pro-Pro-Pro-Ser-NH2 (H[dS]QGTFTSDYSKYLD[Aib]K([PEG2′-PEG2′-C18 diacid])RAQDFVQWLMNTGGPSSGAPPPS-NH2) [Compound 10]
- Relative expression of α-SMA (α-SMA/β-actin, %) [1]: 39.49%
- ALT in the serum (FIG. 6) [2]: significantly inhibit
- BDL-induced hepatic fibrosis and inflammation (HE, Sirius Red, IHC sections) [2]: significantly reduce
- collagenous fiber deposition in liver (Sirius Red dyed sections, FIGS. 2, 4) [2]: significantly inhibit
- content of hydroxyproline of the liver (FIG. 7) [2]: significantly inhibit
- α-SMA in liver (IHC dyed sections, FIGS. 3, 5) [2]: significantly inhibit

Substance: His-(D-Ser)-Gln-Gly-Thr-Phe-Thr-Ser-Asp-Tyr-Ser-Lys-Tyr-Leu-Asp-Ser-Lys(PEG2-PEG2-γGlu-CO(CH2)16CO2H)-Ala-Ala-His-Asp-Phe-Val-Glu-Trp-Leu-Leu-Asn-Gly-Gly-Pro-Ser-Ser-Gly-Ala-Pro-Pro-Pro-Ser-NH2 (H[dS]QGTFTSDYSKYLDSK([PEG2′-PEG2′-γGlu-C18 diacid])AAHDFVEWLLNGGPSSGAPPPS-NH2) [Compound 21]
- Relative expression of α-SMA (α-SMA/β-actin, %) [1]: 37.66%

Substance: His-Aib-Gln-Gly-Thr-Phe-Thr-Ser-Asp-Lys(PEG2-PEG2-γGlu-CO(CH2)14CH3)-Ser-Lys-Tyr-Leu-Asp-Aib-Arg-Arg-Ala-Gln-Asp-Phe-Val-Gln-Trp-Leu-Leu-Asp-Gly-Gly-Pro-Ser-Ser-Gly-Ala-Pro-Pro-Pro-Ser-NH2 (H[Aib]QGTFTSDK([PEG2′-PEG2′-γGlu-Palmitoyl])SKYLD[Aib]RRAQDFVQWLLDGGPSSGAPPPS-NH2) [Compound 8]
- Relative expression of α-SMA (α-SMA/β-actin, %) [1]: 38.25%

Substance: His-Aib-Gln-Gly-Thr-Phe-Thr-Ser-Asp-Lys(PEG2-PEG2-γGlu-CO(CH2)14CH3)-Ser-Lys-Tyr-Leu-Asp-Glu-Arg-Arg-Ala-Gln-Asp-Phe-Val-Gln-Trp-Leu-Leu-Asp-Gly-Gly-Pro-Ser-Ser-Gly-Ala-Pro-Pro-Pro-Ser-NH2 (H[Aib]QGTFTSDK([PEG2′-PEG2′-γGlu-Palmitoyl])SKYLDERRAQDFVQWLLDGGPSSGAPPPS-NH2) [Compound 16]
- Relative expression of α-SMA (α-SMA/β-actin, %) [1]: 40.35%

Substance: His-Aib-Gln-Gly-Thr-Phe-Thr-Ser-Asp-Lys(PEG2-PEG2-γGlu-CO(CH2)14CO2H)-Ser-Lys-Tyr-Leu-Asp-Aib-Arg-Arg-Ala-Gln-Asp-Phe-Val-Gln-Trp-Leu-Leu-Asp-Gly-Gly-Pro-Ser-Ser-Gly-Ala-Pro-Pro-Pro-Ser-NH2 (H[Aib]QGTFTSDK([PEG2′-PEG2′-γGlu-C16 diacid])SKYLD[Aib]RRAQDFVQWLLDGGPSSGAPPPS-NH2) [Compound 11]
- Relative expression of α-SMA (α-SMA/β-actin, %) [1]: 41.78%

Substance: His-Aib-Gln-Gly-Thr-Phe-Thr-Ser-Asp-Lys(PEG2-PEG2-γGlu-CO(CH2)14CO2H)-Ser-Lys-Tyr-Leu-Asp-Glu-Arg-Arg-Ala-Gln-Asp-Phe-Val-Gln-Trp-Leu-Leu-Asp-Gly-Gly-Pro-Ser-Ser-Gly-Ala-Pro-Pro-Pro-Ser-NH2 (H[Aib]QGTFTSDK([PEG2′-PEG2′-γGlu-C16 diacid])SKYLDERRAQDFVQWLLDGGPSSGAPPPS-NH2) [Compound 13]
- Relative expression of α-SMA (α-SMA/β-actin, %) [1]: 37.93%

Substance: His-Aib-Gln-Gly-Thr-Phe-Thr-Ser-Asp-Lys(PEG2-PEG2-γGlu-CO(CH2)16CH3)-Ser-Lys-Tyr-Leu-Asp-Aib-Arg-Arg-Ala-Gln-Asp-Phe-Val-Gln-Trp-Leu-Leu-Asp-Gly-Gly-Pro-Ser-Ser-Gly-Ala-Pro-Pro-Pro-Ser-NH2 (H[Aib]QGTFTSDK([PEG2′-PEG2′-γGlu-Stearoyl])SKYLD[Aib]RRAQDFVQWLLDGGPSSGAPPPS-NH2) [Compound 12]
- Relative expression of α-SMA (α-SMA/β-actin, %) [1]: 36.99%

Substance: His-Aib-Gln-Gly-Thr-Phe-Thr-Ser-Asp-Lys(PEG2-PEG2-γGlu-CO(CH2)16CH3)-Ser-Lys-Tyr-Leu-Asp-Glu-Arg-Arg-Ala-Gln-Asp-Phe-Val-Gln-Trp-Leu-Leu-Asp-Gly-Gly-Pro-Ser-Ser-Gly-Ala-Pro-Pro-Pro-Ser-NH2 (H[Aib]QGTFTSDK([PEG2′-PEG2′-γGlu-Stearoyl])SKYLDERRAQDFVQWLLDGGPSSGAPPPS-NH2) [Compound 14]
- Relative expression of α-SMA (α-SMA/β-actin, %) [1]: 42.80%

Substance: His-Aib-Gln-Gly-Thr-Phe-Thr-Ser-Asp-Lys(PEG2-PEG2-γGlu-CO(CH2)16CO2H)-Ser-Lys-Tyr-Leu-Asp-Aib-Arg-Arg-Ala-Gln-Asp-Phe-Val-Gln-Trp-Leu-Leu-Asp-Gly-Gly-Pro-Ser-Ser-Gly-Ala-Pro-Pro-Pro-Ser-NH2 (H[Aib]QGTFTSDK([PEG2′-PEG2′-γGlu-C18 diacid])SKYLD[Aib]RRAQDFVQWLLDGGPSSGAPPPS-NH2) [Compound 19]
- Relative expression of α-SMA (α-SMA/β-actin, %) [1]: 39.75%

Substance: His-Aib-Gln-Gly-Thr-Phe-Thr-Ser-Asp-Lys(PEG2-PEG2-γGlu-CO(CH2)16CO2H)-Ser-Lys-Tyr-Leu-Asp-Glu-Arg-Arg-Ala-Gln-Asp-Phe-Val-Gln-Trp-Leu-Leu-Asp-Gly-Gly-Pro-Ser-Ser-Gly-Ala-Pro-Pro-Pro-Ser-NH2 (H[Aib]QGTFTSDK([PEG2′-PEG2′-γGlu-C18 diacid])SKYLDERRAQDFVQWLLDGGPSSGAPPPS-NH2) [Compound 15]
- Relative expression of α-SMA (α-SMA/β-actin, %) [1]: 57.29%
